Results on 30 compounds are retold here after article PMC8533206 (Antioxidants, 2021).

The target of data set [1] is T1, Human recombinant MAO-B (hMAO-B) (Homo sapiens, UniProt P27338).
T1 construct: purchased Sigma-Aldrich; host or cells: insect cells
T1 sequence (P27338 1-520): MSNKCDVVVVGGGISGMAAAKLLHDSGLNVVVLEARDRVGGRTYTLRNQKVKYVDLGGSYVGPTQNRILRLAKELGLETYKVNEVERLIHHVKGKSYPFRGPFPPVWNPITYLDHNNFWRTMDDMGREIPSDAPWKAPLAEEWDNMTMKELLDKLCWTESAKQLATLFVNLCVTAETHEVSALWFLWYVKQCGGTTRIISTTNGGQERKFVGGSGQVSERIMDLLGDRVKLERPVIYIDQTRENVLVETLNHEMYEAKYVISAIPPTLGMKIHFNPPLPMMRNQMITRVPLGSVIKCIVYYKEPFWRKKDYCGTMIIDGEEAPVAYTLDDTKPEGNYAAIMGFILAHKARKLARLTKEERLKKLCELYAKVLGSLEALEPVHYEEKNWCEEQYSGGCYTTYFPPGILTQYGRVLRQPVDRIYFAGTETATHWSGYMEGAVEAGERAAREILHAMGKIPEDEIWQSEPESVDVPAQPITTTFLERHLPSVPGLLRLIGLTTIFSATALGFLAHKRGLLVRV
The data set is described as follows: MAO-B inhibition assay (Amplex Red fluorescence, benzylamine substrate). The data set is classed as biochemical. Conditions: single dose 10 µM. On the procedure:
The biological evaluation of the tested compounds over both MAO-A and MAO-B was performed following the previously reported method. The MAO activity was measured in relative fluorescence units (RFU) evoked by peroxidase-catalyzed oxidation of Amplex Red® to resorufin, in which H2O2 generated by MAO reaction was used as the electron donor. Human recombinant MAO-A (hMAO-A) and MAO-B (hMAO-B) enzymes expressed in insect cells were obtained from Sigma-Aldrich. The 2 μL of test compound in DMSO (final concentration: 1–10 μM) was treated with 98 μL of hMAO enzyme solution in 50 mM sodium phosphate buffer (pH 7.4, final protein amounts: ~1.25 μg protein/well for MAO-A and ~2.5 μg protein/well for MAO-B) on 96-well black plate and incubated for 15 min at 37 °C. Then, 100 μL of reaction working solution which is a mixed solution of 400 μM Amplex Red® (Cayman, final concentration: 200 μM), 2 U/mL horseradish peroxidase (Sigma-Aldrich, final concentration: 1 U/mL) and 2 mM substrate (p-tyramine for MAO-A, benzylamine for MAO-B, Sigma-Aldrich, final concentration: 1 mM) in 50 mM sodium phosphate buffer (pH 7.4) were added and incubated for 20 min at 37 °C in the dark. The fluorescent intensity was quantified using a microplate reader (SpectraMax®i3, Molecular Device) with an excitation at 545 nm and an emission at 590 nm. The 50% inhibitory concentrations (IC50) of compounds were determined as the mean ± S.E.M. in triplicate from the dose-response inhibition curves using SigmaPlot® 13.0 (Systat Software Inc., San Jose, CA, USA).

On to `O=C(c1cccc(F)c1)n1ccc2cc(NC(=S)Nc3ccc(Cl)c(Cl)c3)ccc21` [Compound 5i, 1-(3,4-Dichlorophenyl)-3-(1-(3-fluorobenzoyl)-1H-indol-5-yl)thiourea], for which the melting point was in the range of 193.4 to 194.4 °C. For the same compound, the inhibition at 10 µM in data set [1] came to 59.8 ± 0.4%.

`COC(=O)c1ccc2c(ccn2C(=O)c2cccc(F)c2)c1` [Compound 7a, Methyl 1-(3-fluorobenzoyl)-1H-indole-5-carboxylate] returned a melting point of 103.4 to 104.4 °C. For the same compound, in data set [1], the inhibition at 10 µM turned out to be 49.8 ± 0.3%. With `O=C(c1cccc(F)c1)n1ccc2cc(NC(=S)Nc3cccnc3)ccc21` [Compound 5j, 1-(1-(3-Fluorobenzoyl)-1H-indol-5-yl)-3-(pyridin-3-yl)thiourea], the melting point lay within 144.9 to 145.9 °C. Moreover, the inhibition at 10 µM in data set [1] worked out at 51.1 ± 0.4%.

Compound `CCOC(=O)Nc1ccc2c(ccn2C(=O)c2cccc(F)c2)c1` [Compound 6b, Ethyl (1-(3-fluorobenzoyl)-1H-indol-5-yl)carbamate] had a melting point of 136.5 to 137.5 °C. The inhibition at 10 µM in data set [1] was found to be 33.8 ± 2.3%. In turn, `COc1cc(NC(=O)Nc2ccc3c(ccn3C(=O)c3cccc(F)c3)c2)cc(OC)c1` [Compound 4g, 1-(3,5-Dimethoxyphenyl)-3-(1-(3-fluorobenzoyl)-1H-indol-5-yl)urea] yielded a melting point of 235.6 to 236.6 °C. Further, the inhibition at 10 µM in data set [1] was 55.7 ± 0.2%. As to `O=C(Nc1ccc(Cl)c(C(F)(F)F)c1)Nc1ccc2c(ccn2C(=O)c2cccc(F)c2)c1` [Compound 4k, 1-(4-Chloro-3-(trifluoromethyl)phenyl)-3-(1-(3-fluorobenzoyl)-1H-indol-5-yl)urea], the melting point was 210.9 to 211.9 °C. Also, the inhibition at 10 µM in data set [1] was 42.1 ± 1.7%. For `O=C(Nc1ccc2c(ccn2C(=O)c2cccc(F)c2)c1)c1coc2ccccc2c1=O` [Compound 6e, N-(1-(3-fluorobenzoyl)-1H-indol-5-yl)-4-oxo-4H-chromene-3-carboxamide] the same measures were 226.6 to 227.6 °C and 59.6 ± 0.3%. In the case of `O=C(Nc1cc(Cl)cc(Cl)c1)Nc1ccc2c(ccn2C(=O)c2cccc(F)c2)c1` [Compound 4h, 1-(3,5-Dichlorophenyl)-3-(1-(3-fluorobenzoyl)-1H-indol-5-yl)urea], in data set [1], the inhibition at 10 µM is 38.6 ± 1.6%. On to `O=C(c1cccc(F)c1)n1ccc2cc(NC(=S)NCc3ccco3)ccc21` [Compound 5f, 1-(1-(3-Fluorobenzoyl)-1H-indol-5-yl)-3-(furan-2-ylmethyl)thiourea], for which the melting point was in the range of 152.6 to 153.6 °C. In addition, the inhibition at 10 µM in data set [1] came to 34.1 ± 0.7%. Take `CCOC(=O)C(=O)Nc1ccc2c(ccn2C(=O)c2cccc(F)c2)c1` [Compound 6c, Ethyl 2-((1-(3-fluorobenzoyl)-1H-indol-5-yl)amino)-2-oxoacetate]: the inhibition at 10 µM in data set [1] is 35.5 ± 1.5%. For `O=C(c1cccc(F)c1)n1ccc2cc(NC(=S)Nc3ccc([N+](=O)[O-])cc3)ccc21` [Compound 5g, 1-(1-(3-Fluorobenzoyl)-1H-indol-5-yl)-3-(4-nitrophenyl)thiourea], in data set [1], the inhibition at 10 µM turned out to be 30.6 ± 0.9%. `CCOC(=O)NC(=S)Nc1ccc2c(ccn2C(=O)c2cccc(F)c2)c1` [Compound 5a, 1-Ethoxycarbonyl-3-(1-(3-fluorobenzoyl)-1H-indol-5-yl)thiourea] had a melting point of 199.4 to 200.4 °C. The inhibition at 10 µM in data set [1] turned out to be 15.5 ± 1.1%. As to `O=C(Nc1ccc(Cl)c(Cl)c1)Nc1ccc2c(ccn2C(=O)c2cccc(F)c2)c1` [Compound 4j, 1-(3,4-Dichlorophenyl)-3-(1-(3-fluorobenzoyl)-1H-indol-5-yl)urea], the inhibition at 10 µM in data set [1] was 53.5 ± 0.3%.

Take `O=C(c1cccc(F)c1)n1ccc2cc(NC(=S)NCCN3CCCCC3)ccc21` [Compound 5e, 1-(1-(3-Fluorobenzoyl)-1H-indol-5-yl)-3-(2-(piperidin-1-yl)ethyl)thiourea]: the melting point lay in the range of 187.1 to 188.1 °C. The inhibition at 10 µM in data set [1] turned out to be 44.7 ± 0.5%.

Consider `O=C(Nc1ccc(Oc2ccccc2)cc1)Nc1ccc2c(ccn2C(=O)c2cccc(F)c2)c1` [Compound 4m, 1-(1-(3-Fluorobenzoyl)-1H-indol-5-yl)-3-(4-phenoxyphenyl)urea], for which the melting point lay in the range of 235.2 to 236.2 °C. Besides, in data set [1], the inhibition at 10 µM was 38.1 ± 0.5%. Compound `O=C(Nc1ccc2c(ccn2C(=O)c2cccc(F)c2)c1)c1ccc(Cl)c(Cl)c1` [Compound 6d, 3,4-Dichloro-N-(1-(3-fluorobenzoyl)-1H-indol-5-yl)benzamide] registered a melting point of 237.6 to 238.6 °C. For the same compound, the inhibition at 10 µM in data set [1] is 53 ± 0.3%.

For `O=C(c1cccc(F)c1)n1ccc2cc(NC(=S)NCCN3CCOCC3)ccc21` [Compound 5d, 1-(1-(3-Fluorobenzoyl)-1H-indol-5-yl)-3-(2-morpholinoethyl)thiourea], the inhibition at 10 µM in data set [1] amounted to 46.8 ± 0.2%. For `O=C(Nc1ccc(F)c(Cl)c1)c1ccc2[nH]ccc2c1` [Compound 8c, N-(3-chloro-4-fluorophenyl)-1H-indole-5-carboxamide], the inhibition at 10 µM in data set [1] was found to be 34.2 ± 0.2%.

Consider `COc1cc(NC(=S)Nc2ccc3c(ccn3C(=O)c3cccc(F)c3)c2)cc(OC)c1` [Compound 5h, 1-(3,5-Dimethoxyphenyl)-3-(1-(3-fluorobenzoyl)-1H-indol-5-yl)thiourea], for which the melting point was in the range of 171.1 to 172.1 °C. In data set [1], the inhibition at 10 µM stood at 32.5 ± 0.5%.

In turn, `O=C(c1cccc(F)c1)n1ccc2cc(NC(=S)NCCCl)ccc21` [Compound 5b, 1-(2-Chloroethyl)-3-(1-(3-fluorobenzoyl)-1H-indol-5-yl)thiourea] had a melting point of 221.5 to 222.5 °C. The inhibition at 10 µM in data set [1] amounted to 45.6 ± 1.2%. On to `COc1ccc(NC(=O)Nc2ccc3c(ccn3C(=O)c3cccc(F)c3)c2)cc1` [Compound 4f, 1-(1-(3-Fluorobenzoyl)-1H-indol-5-yl)-3-(4-methoxyphenyl)urea], for which, in data set [1], the inhibition at 10 µM came to 32.5 ± 1.4%.

The compound `O=C(NCCCl)Nc1ccc2c(ccn2C(=O)c2cccc(F)c2)c1` [Compound 4c, 1-(2-Chloroethyl)-3-(1-(3-fluorobenzoyl)-1H-indol-5-yl)urea] had a melting point of 191.3 to 192.3 °C. Also, the inhibition at 10 µM in data set [1] was 26.6 ± 0.6%. Regarding `O=C(Nc1ccc(N2CCOCC2)cc1)Nc1ccc2c(ccn2C(=O)c2cccc(F)c2)c1` [Compound 4n, 1-(1-(3-Fluorobenzoyl)-1H-indol-5-yl)-3-(4-morpholinophenyl)urea], the inhibition at 10 µM in data set [1] turned out to be 32.9 ± 0.3%. For the compound `O=C(NCc1ccc2c(c1)OCO2)c1ccc2[nH]ccc2c1` [Compound 8d, N-(benzo[d][1,3]dioxol-5-ylmethyl)-1H-indole-5-carboxamide], the melting point is 131.6 to 132.6 °C. Further, the inhibition at 10 µM in data set [1] was 15.3 ± 0.8%.

`CCOC(=O)CNC(=O)Nc1ccc2c(ccn2C(=O)c2cccc(F)c2)c1` [Compound 4b, Ethyl ((1-(3-fluorobenzoyl)-1H-indol-5-yl)carbamoyl)glycinate] showed a melting point of 203.3 to 204.3 °C. The inhibition at 10 µM in data set [1] was found to be 9.9 ± 1.5%.

`O=C(c1cccc(F)c1)n1ccc2cc(NC(=S)Nc3ccc(N4CCOCC4)cc3)ccc21` [Compound 5c, 1-(1-(3-Fluorobenzoyl)-1H-indol-5-yl)-3-(4-morpholinophenyl)thiourea] returned a melting point of 192.7 to 193.7 °C. In addition, in data set [1], the inhibition at 10 µM came to 43.9 ± 1.1%. `O=C(Nc1ccc2c(ccn2C(=O)c2cccc(F)c2)c1)NC1CCCCC1` [Compound 4d, 1-Cyclohexyl-3-(1-(3-fluorobenzoyl)-1H-indol-5-yl)urea] registered a melting point of 222.7 to 223.7 °C. The inhibition at 10 µM in data set [1] stood at 44 ± 0.8%. For `O=C(NCCc1ccc(F)cc1)Nc1ccc2c(ccn2C(=O)c2cccc(F)c2)c1` [Compound 4l, 1-(1-(3-Fluorobenzoyl)-1H-indol-5-yl)-3-(4-fluorophenethyl)urea] the same measures were 231.5 to 232.5 °C and 42 ± 0.6%.

`O=C(Nc1ccc2c(ccn2C(=O)c2cccc(F)c2)c1)c1ccnc([N+](=O)[O-])c1` [Compound 6a, N-(1-(3-Fluorobenzoyl)-1H-indol-5-yl)-2-nitroisonicotinamide] showed a melting point of 278.1 to 279.1 °C. Also, the inhibition at 10 µM in data set [1] is 26.8 ± 1.3%. With `CCNC(=O)Nc1ccc2c(ccn2C(=O)c2cccc(F)c2)c1` [Compound 4a, 1-Ethyl-3-(1-(3-fluorobenzoyl)-1H-indol-5-yl)urea], in data set [1], the inhibition at 10 µM was determined as 46.2 ± 1.1%.
